What was measured:
Jurkat cells = assay: BCMA membrane level by flow cytometry after γ-secretase inhibition, Jurkat; format: cell-based; settings: 100nM, 24-48 h
Method: (§1) To evaluate whether other malignancies besides multiple myeloma (MM) can potentially be targeted by BCMA directed immunotherapy, B cell malignancy cell lines were assessed for BCMA expression by flow cytometry. […] Per FIG. 1A, B cell malignancy cell lines were cultured and basal levels of BCMA were assessed by flow cytometry and compared to isotype controls. (n=3-8). Dotted line indicates no increase compared to isotype control. In accordance with FIG. 1B, cell lines were treated for 24-48h with 100nM γ-secretase inhibitor or with medium control and BCMA was assessed by flow cytometry. Values are represented as fold increase compared to 0 nM γ-secretase inhibitor. (n=3-12) Dotted line indicates no increase compared to 0 nM γ-secretase inhibitor. FIG. 1C represents the results of an asssessment of soluble BCMA by ELISA in supernatants of B cell malignancy cell lines after treatment with 0 nM or 100 nM γ-secretase inhibitor for 24-48 h. (n=2). […] The P value was calculated by paired t test of Wilcoxon test (FIG. 1A-1B) or simple linear regression (FIG. 1E). […]
(§2) Since BCMA is known to be cleaved off by γ-secretase, it was evaluated whether inhibition of this enzyme would lead to enhanced BCMA levels on these B cell lines. […]
Flow cytometry. […] After antibody staining, samples were washed using PBA and acquired on BD FACS Canto or LSR Fortessa flow cytometer and analysed with FlowJo v10. […]

[1] = system: B cell malignancy cell lines; assay: Soluble BCMA ELISA in supernatants of cell lines; format: cell-based; settings: 100 nM, 24 or 48h, both time points
Method: as §1, §2
(§3) sBCMA ELISA. […] After 24 or 48 h supernatants were harvested and stored at −20° C. soluble BCMA (sBCMA) in supernatants were measured by ELISA using antibody pairs for BCMA.

primary CLL cells = assay: Soluble BCMA ELISA in supernatants of CLL cells; format: cell-based, human; settings: 100 nM, 24-48 h
Method: Primary CLL samples were stained for BCMA expression by flow cytometry and compared to isotype controls. […] As provided in FIG. 2A, CLL cells were cultured and basal levels of BCMA were assessed by flow cytometry and compared to isotype controls. (n=25). For FIG. 2B, CLL cells were treated for 24 or 48h with 0nM or 100 nM γ-secretase inhibitor and BCMA was assessed by flow cytometry. Values are represented as fold increase compared to medium control. (n=12-28). FIG. 2C provides basal levels of BCMA compared to isotype control among CLL patients with mutated or unmutated IgVH. (n=4-10). FIG. 2D illustrates the fold increase of BCMA after 24-48 h treatment with 100nM γ-secretase inhibitor compared to medium control among CLL patients with mutated or unmutated IgVH. (n=5-13). FIG. 2E provides the results of an assessment of BCMA mRNA relative to GAPDH control by qPCR after primary CLL samples were treated without or with 100 nM γ-secretase inhibitor for 24 h. (n=9). […] (n=4-12) The P value was calculated by Wilcoxon test (FIGS. 2A-2B), Mann Whitney test (FIGS. 2B, 2C, 2D) or paired t test (FIGS. 2E, F). […]
as §3

C[C@H](NC(=O)[C@@H](O)c1cc(F)cc(F)c1)C(=O)N[C@@H]1C(=O)N(C)c2ccccc2-c2ccccc21 [Ly411575]
BCMA level after γ-secretase inhibition (Jurkat cells): no upregulation of BCMA
soluble BCMA (sBCMA) levels in supernatants [1]: strongly reduced
sBCMA levels in supernatants of CLL cells (primary CLL cells): marked decreases

— patent US20220411525A1, “BCMA AS A TARGET FOR T CELL REDIRECTING ANTIBODIES IN B CELL LYMPHOMAS” (Janssen Pharmaceutica NV, priority 2021, published 2022)
